Results on 2 compounds are retold here after patent US12568991B2, “Method for increasing the solubility and stability of organic compositions” (GLANBIA DAIRY NUTRITION LIMITED, priority 2017, dated 2026).

Data set [1] is classed as physicochemical. The following applies: pH 7. An excerpt: Creatine Formulation: A solution of surfactants was made by combining soy lecithin with 48-98% acetone insolubility (3.1 to 9.9 g/100 g as in dispersion or 9.2 to 16.9 g/100 g as in powder) in water (pH 7.0), with maltodextrin MD040 (Maltrin®, Grain Processing Corporation, 4.9-10.2 g/100 g as in dispersion or 12.4-17.7 g/100 g as in powder). Then the micronized (200 Mesh size or 70-80 μm) creatine monohydrate (23.7-40.2 g/100 g as in dispersion or 65.2-79.3 g/100 g as in powder), along with Alpha cyclodextrin (Cavamax®, Wacker Chemie AG, 0-0.26 g/100 g as in dispersion or 0-0.4 g/100 g as in powder), was added to the above solution of surfactants. After premixing the dispersion, it was run through the homogenizer at 500 psi/34 bar, 1 pass. The dispersion thus formed was heated to a pasteurization temperature of 72° C., for 30 min. Finally, this dispersion was spray dried, with TInlet=220-230° C. and TOutlet=92-100° C. Creatine shelf stability was evaluated at pH 3.3-7.0.
For the shelf-stability study, the corresponding spray-dried powders produced from the slurry were used for determining the chemical stability of limited-solubility organic compounds either in a neutral pH (6.8-7.0) drink or an acidic pH (3.3-3.7) drink formula. For this determination, the limited-solubility organic compound-containing beverages were prepared at their respective pHs, using spray-dried powder. […]

For data set [2] the following is noted: individuals who have high cholesterol; cited from earlier work.

Structures are written as SMILES.

For the compound `CN(CC(=O)O)C(=N)N.O` [creatine monohydrate], the “creatine degradation curve (y=% creatine levels, after (x) number of days)” value in data set [1] is “y=48.294e^−0.024x”.

With `CN(CC(=O)O)C(=N)N` [creatine], in data set [2], the reduction of cholesterol entry was “up to 15%”.
